US6987101B1, “Therapeutic gestagens for the treatment of premenstrual dysphoric disorder” (Schering Aktiengesellschaft, priority 1996, dated 2006)

Tested on: premenstrual dysphoric disorder (PMDD) symptoms
Assay: Oral treatment of women classified as PMDD patients over 4 to 6 cycles, re-evaluation of symptom criteria 1 to 11
Type: in vivo, fertile women
Details: 3 mg drospirenone together with 30 μg ethinylestradiol orally daily, day 1 to day 21 of the cycle, then 7 pill-free or placebo days; evaluated after 4 to 6 cycles; all of the women treated
Excerpt: In the prospective evaluation by recording the symptoms of the patient over 2 or 3 menstrual cycles, 5 (or more) of the symptoms that are listed below occur during the last week of the luteal phase, but no longer occur postmenstrually. At least one of the symptoms must be the first, second, third or fourth symptom below. • 1. Noticeably stressed mental state, feelings of hopelessness or self-doubt • 2. Noticeable feeling of anxiety, tension, feeling of “being on the edge” • 3. Noticeable emotional tendencies (e.g., suddenly feeling sad or fretful or increased sensitivity to rejection) • 4. Lasting and noticeable feelings of unease or irritability or increased interpersonal conflicts • 5. Decreasing interest in conventional activities (e.g., work, school, friends, hobbies) • 6. Subjective sensation of concentration difficulties • 7. Lethargy, slight exhaustion or noticeable lack of energy • 8. Noticeable change in appetite, overeating or special food cravings • 9. […]
Fertile women, who were classified according to the above-indicated criteria 1. to 11. as PMDD patients, are treated orally over at least 4 cycles, in each case from day 1 to day 21 of the cycle daily, with an amount of 3 mg of drospirenone together with 30 μg of ethinylestradiol. […] After a treatment over 4 to 6 cycles, the symptoms that fall into the category criteria 1. to 11. are carefully evaluated again.

C[C@]12CCC(=O)C=C1[C@@H]1C[C@@H]1[C@H]1[C@@H]3[C@@H]4C[C@@H]4[C@@]4(CCC(=O)O4)[C@@]3(C)CC[C@@H]12 [drospirenone]
improvement relative to at least one of the PMDD symptoms that occurred before the beginning of the treatment (not only the 11th symptom): significant improvement
